Test system: HCT116 cells
Assay: Boyden chamber transwell migration assay
Type: cell-based, human
Details: for cell migration rate, mean %: 1 μM daily for 3 days
Experimental: HCT116, SW620, LS174T, SW480 and DLD-1 cells were used in cell migration and invasion analysis performed with Boyden chamber assay. 400 μL containing 2.5×10^5 cells were seeded into each transwell chamber with filter membranes of 12.0 μm pore size (Millipore, Schwalbach, Germany). For invasion filter membranes were coated with 50 μL Matrigel (diluted 1:3 in RPMI-1640; BD Biosciences) 10 minutes before cells were seeded. Fresh medium (600 μL) were added to the bottom chamber and cells were allowed to attach to the insets for 15 hours. […] Afterwards insets were removed and cells that had migrated through the membrane to the lower chamber were trypsinized and counted in a Neubauer chamber (LO-Laboroptik, Bad Homburg, Germany). Each well was counted ten times. Each migration or invasion experiment was performed in duplicate. The average number of migrated or invaded cells was determined for at least three independent experiments.
(A) Chemical structure of niclosamide and its derivatives. In 2D illustrations the niclosamide structure was compared with the structure of niclosamide derivatives; marked in solid circles or boxes are added chemical groups, marked in grey and surrounded by dotted lines are removed chemical groups. In 3D illustrations grey clouds represent van der Waals surface, red and blue indicate negative and positive charges, respectively. (B) S100A4 expression under treated conditions. HCT116 cells were treated with 1 μM niclosamide or one of the niclosamide derivatives for 24 hours. S100A4 expression was analyzed by qRT-PCR and immunoblot. (C) Cell migration under treated conditions. HCT116 cells were treated with 1 μM niclosamide or one of its derivatives for 24 hours and cell migration was determined by Boyden chambder assay. Cells migrated to the lower chamber were counted and normalized to the number of migrated, solvent-treated HCT116 cells. Comparison of niclosamide or derivative-treated vs. solvent-treated cells was performed by two-sided one-way analysis of variance and Bonferroni post hoc multiple comparison test. Data is given as mean±SE at least four independent experiments each performed in duplicates.
For WNT pathway analysis the following cells were applied: HCT116 cells (heterozygous for gain-of-function-mutated CTNNB1; wt/mut), HAB-68mut cells (deletion mutant of HCT116, expressing only gain-of-function-mutated CTNNB1: −/mut) and HAB-92 wt cells (deletion mutant of HCT116, expressing only wild-type CTNNB1: wt/−). (A) CTNNB1 genotype dependent effect of niclosamide on LEF/TCF transcription factor reporter gene expression. Cells were treated with 1 μM niclosamide for 24 hours. Reporter gene expression was determined by luciferase activity measurement. For each condition and cell line TOPflash expression was normalized to FOPflash expression. (B) CTNNB1 genotype dependent effect of niclosamide on S100A4 expression. Cells were treated with 1 μM niclosamide for 24 hours. S100A4 expression was analyzed by qRT-PCR and immunoblot. (C) CTNNB1 genotype dependent effect of niclosamide on migration rates. Cells were treated with 1 μM niclosamide for 24 hours and cell migration was determined by Boyden chamber assay. Data represents mean±SE of at least three independent experiments. Differences were analyzed by Student's t test (n.s.; not statistically significant). (D) Nuclear localization of CTNNB1 under niclosamide treatment. Nuclear extracts of HCT116 cells treated with the indicated concentrations of niclosamide for 18 hours were analyzed by immunoblot. (E) Effect of niclosamide on CTNNB1/TCF complex. Nuclear extracts of HCT116 cells treated with the indicated concentrations of niclosamide for 18 hours were analyzed by EMSA for the TCF-binding site of the S100A4 promoter. Supershift was performed by addition of a monoclonal anti-CTNNB1 antibody. (F) Presence of CTNNB1 on the S100A4 promoter under niclosamide treatment. HCT116 cells were treated with 1 μM niclosamide for 18 hours and processed for ChIP assay. […]

Compound: O=C(Nc1ccc([N+](=O)[O-])cc1Cl)c1cc(Cl)ccc1O [niclosamide, 2′,5-dichloro-4′-nitrosalicylanilide]
- cell migration rate, mean % (24 hours post-treatment, control 100.0%): 18.7%
- cell migration rate, mean % (48 hours post-treatment, control 100.0%): 12.2%
- cell migration rate, mean % (72 hours post-treatment, control 108.8%): 10.4%
- migration rate, mean difference control vs niclosamide (1 μM, 24 h (relative scale)): 0.54
- migration rate, mean (relative to HCT116 control) (1 μM, 24 h, control 1.00): 0.45
- migration, mean difference control vs niclosamide (24 hours post-treatment): 81.3%
- migration, mean difference control vs niclosamide (48 hours post-treatment): 87.8%
- migration, mean difference control vs niclosamide (72 hours post-treatment): 98.4%
